pIC50: −log10 of the molar value.

The target in this assay is Toll-like receptor 4 (Homo sapiens, UniProt O00206). Description: Inhibition of induction of NF-kappaB by LPS in HEK293 cells co-transfected with TLR4, CD14 and MD2.
Toll-like receptor 4, sequence (O00206 whole entry): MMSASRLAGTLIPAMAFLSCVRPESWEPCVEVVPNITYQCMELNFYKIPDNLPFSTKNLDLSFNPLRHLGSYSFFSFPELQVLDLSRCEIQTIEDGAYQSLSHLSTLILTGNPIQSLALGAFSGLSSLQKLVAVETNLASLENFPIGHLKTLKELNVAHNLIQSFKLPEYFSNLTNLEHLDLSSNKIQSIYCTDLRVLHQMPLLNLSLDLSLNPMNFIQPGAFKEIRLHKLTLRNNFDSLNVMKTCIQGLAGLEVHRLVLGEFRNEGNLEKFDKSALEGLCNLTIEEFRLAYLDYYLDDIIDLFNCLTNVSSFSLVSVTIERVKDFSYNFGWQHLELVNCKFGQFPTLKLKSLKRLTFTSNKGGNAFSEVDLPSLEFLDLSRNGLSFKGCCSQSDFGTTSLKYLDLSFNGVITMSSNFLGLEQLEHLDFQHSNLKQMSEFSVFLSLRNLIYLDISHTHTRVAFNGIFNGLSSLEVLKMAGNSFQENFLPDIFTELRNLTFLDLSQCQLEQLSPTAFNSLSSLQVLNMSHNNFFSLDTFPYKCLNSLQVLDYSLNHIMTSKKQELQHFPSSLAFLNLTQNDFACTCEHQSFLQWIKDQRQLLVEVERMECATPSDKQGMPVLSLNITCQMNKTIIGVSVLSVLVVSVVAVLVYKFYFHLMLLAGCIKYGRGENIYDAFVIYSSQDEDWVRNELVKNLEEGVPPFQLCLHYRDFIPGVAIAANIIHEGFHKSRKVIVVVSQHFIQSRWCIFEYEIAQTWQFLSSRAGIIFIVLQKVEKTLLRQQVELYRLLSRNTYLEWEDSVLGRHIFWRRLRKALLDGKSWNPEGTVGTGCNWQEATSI
With `CCCOc1c(C=NN=C(N)N)ccc(C=NN=C(N)N)c1OCCC`, the negative logarithm of the IC50 (pIC50) (as a rule, −log10 of the IC50, conventionally taken in molar units) was 4.56.
As for `NC(N)=NN=Cc1ccc(C=NN=C(N)N)cc1`, the figure is 3.79; as for `CCOc1c(C=NN=C(N)N)ccc(C=NN=C(N)N)c1OCC`, 4.45.
The same measure for `CCCCCOc1c(C=NN=C(N)N)ccc(C=NN=C(N)N)c1OCCCCC`: 4.98.
The same measure for `NC(N)=NN=Cc1ccc(C=NN=C(N)N)c(O)c1O`: 4.23.
For `C=CCOc1c(C=NN=C(N)N)ccc(C=NN=C(N)N)c1OCC=C`, the pIC50 was 4.21.
The same measure for `CCCCCCCCCCCCCCOc1c(C=NN=C(N)N)ccc(C=NN=C(N)N)c1OCCCCCCCCCCCCCC`: 3.72; for `CCCCOc1c(C=NN=C(N)N)ccc(C=NN=C(N)N)c1OCCCC`: 5.03; for `CCCCCCOc1c(C=NN=C(N)N)ccc(C=NN=C(N)N)c1OCCCCCC`: 5.21.
The same measure for `CCCCCCCCOc1c(C=NN=C(N)N)ccc(C=NN=C(N)N)c1OCCCCCCCC`: 5.35; for `COc1c(C=NN=C(N)N)ccc(C=NN=C(N)N)c1OC`: 3.76.

Source of the values: BindingDB's records for doi:10.1016/j.bmcl.2005.11.059 (University of Kansas, 2006).
